From PubChem BioAssay (NCI)
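GI50: concentration for 50% inhibition of growth. TGI denotes the concentration required for complete inhibition of growth.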

Key:
Assay in all cases: NCI tumour cell line growth inhibition, 384-well format; in the data active = GI50 below about 0.43 µM; inactive = the rest
786-0 renal = system: 786-0 renal
A498 renal = system: A498 renal
A549 NSCLC = system: A549 NSCLC
ACHN renal = system: ACHN renal
BT-549 breast = system: BT-549 breast
CAKI-1 renal = system: CAKI-1 renal
CCRF-CEM leukemia = system: CCRF-CEM leukemia
COLO 205 colon = system: COLO 205 colon
DU-145 prostate = system: DU-145 prostate
HCC-2998 colon = system: HCC-2998 colon
HCT-116 colon = system: HCT-116 colon
HCT-15 colon = system: HCT-15 colon
HL-60(TB) leukemia = system: HL-60(TB) leukemia
HOP-62 NSCLC = system: HOP-62 NSCLC
HOP-92 NSCLC = system: HOP-92 NSCLC
HT29 colon = system: HT29 colon
IGROV1 ovarian = system: IGROV1 ovarian
K-562 leukemia = system: K-562 leukemia
KM12 colon = system: KM12 colon
LOX IMVI melanoma = system: LOX IMVI melanoma
M14 melanoma = system: M14 melanoma
MALME-3M melanoma = system: MALME-3M melanoma
MCF7 breast = system: MCF7 breast
MDA-MB-231 breast = system: MDA-MB-231 breast
MDA-MB-435 melanoma = system: MDA-MB-435 melanoma
MDA-MB-468 breast = system: MDA-MB-468 breast
MOLT-4 leukemia = system: MOLT-4 leukemia
NCI-H226 lung = system: NCI-H226 lung
NCI-H23 lung = system: NCI-H23 lung
NCI-H322M lung = system: NCI-H322M lung
NCI-H460 NSCLC = system: NCI-H460 NSCLC
NCI-H522 lung = system: NCI-H522 lung
NCI/ADR-RES ovarian = system: NCI/ADR-RES ovarian
OVCAR-3 ovarian = system: OVCAR-3 ovarian
OVCAR-4 ovarian = system: OVCAR-4 ovarian
OVCAR-5 ovarian = system: OVCAR-5 ovarian
OVCAR-8 ovarian = system: OVCAR-8 ovarian
PC-3 prostate = system: PC-3 prostate
RPMI-8226 leukemia = system: RPMI-8226 leukemia
RXF 393 renal = system: RXF 393 renal
SF-268 CNS = system: SF-268 CNS
SF-295 CNS = system: SF-295 CNS
SF-539 CNS = system: SF-539 CNS
SK-MEL-2 melanoma = system: SK-MEL-2 melanoma
SK-MEL-28 melanoma = system: SK-MEL-28 melanoma
SK-MEL-5 melanoma = system: SK-MEL-5 melanoma
SK-OV-3 ovarian = system: SK-OV-3 ovarian
SN12C renal = system: SN12C renal
SNB-19 CNS = system: SNB-19 CNS
SR leukemia = system: SR leukemia
SW-620 colon = system: SW-620 colon
T-47D breast = system: T-47D breast
TK-10 renal = system: TK-10 renal
U251 glioblastoma = system: U251 glioblastoma
UACC-257 melanoma = system: UACC-257 melanoma
UACC-62 melanoma = system: UACC-62 melanoma
UO-31 renal = system: UO-31 renal

CCN(c1cc(C#CCN2CCOCC2)cc(C(=O)NCc2c(C)cc(C)[nH]c2=O)c1C)C1CCC(N(C)CCOC)CC1 (centres undefined)
92.5 µM: TGI (HCC-2998 colon)
34.7 µM: TGI (HOP-92 NSCLC)
21.4 µM: TGI (CCRF-CEM leukemia)
0.193 µM: TGI (RPMI-8226 leukemia)
active: GI50 (RPMI-8226 leukemia) 0.0254 µM
> 100 µM: TGI (786-0 renal) | TGI (A498 renal) | TGI (A549 NSCLC) | TGI (ACHN renal) | TGI (BT-549 breast) | TGI (CAKI-1 renal) | TGI (COLO 205 colon) | TGI (DU-145 prostate) | TGI (HCT-116 colon) | TGI (HCT-15 colon) | TGI (HL-60(TB) leukemia) | TGI (HOP-62 NSCLC) | TGI (HT29 colon) | TGI (IGROV1 ovarian) | TGI (K-562 leukemia) | TGI (KM12 colon) | TGI (LOX IMVI melanoma) | TGI (M14 melanoma) | TGI (MALME-3M melanoma) | TGI (MCF7 breast) | TGI (MDA-MB-231 breast) | TGI (MDA-MB-435 melanoma) | TGI (MDA-MB-468 breast) | TGI (NCI-H226 lung) | TGI (NCI-H23 lung) | TGI (NCI-H322M lung) | TGI (NCI-H460 NSCLC) | TGI (NCI-H522 lung) | TGI (NCI/ADR-RES ovarian) | TGI (OVCAR-3 ovarian) | TGI (OVCAR-4 ovarian) | TGI (OVCAR-5 ovarian) | TGI (OVCAR-8 ovarian) | TGI (PC-3 prostate) | TGI (RXF 393 renal) | TGI (SF-268 CNS) | TGI (SF-295 CNS) | TGI (SF-539 CNS) | TGI (SK-MEL-2 melanoma) | TGI (SK-MEL-28 melanoma) | TGI (SK-MEL-5 melanoma) | TGI (SK-OV-3 ovarian) | TGI (SN12C renal) | TGI (SNB-19 CNS) | TGI (SR leukemia) | TGI (SW-620 colon) | TGI (T-47D breast) | TGI (TK-10 renal) | TGI (U251 glioblastoma) | TGI (UACC-257 melanoma) | TGI (UACC-62 melanoma) | TGI (UO-31 renal)
3.55 µM: TGI (MOLT-4 leukemia)
inactive: GI50 ([…]-0 renal) > 100 µM | GI50 (A498 renal) 91.1 µM | GI50 (A549 NSCLC) > 100 µM | GI50 (ACHN renal) > 100 µM | GI50 (BT-549 breast) > 100 µM | GI50 (CAKI-1 renal) > 100 µM | GI50 (CCRF-CEM leukemia) 4.63 µM | GI50 (COLO 205 colon) > 100 µM | GI50 (DU-145 prostate) > 100 µM | GI50 (HCC-2998 colon) 8.42 µM | GI50 (HCT-116 colon) > 100 µM | GI50 (HCT-15 colon) > 100 µM | GI50 (HL-60(TB) leukemia) > 100 µM | GI50 (HOP-62 NSCLC) 67.2 µM | GI50 (HOP-92 NSCLC) 2.55 µM | GI50 (HT29 colon) > 100 µM | GI50 (IGROV1 ovarian) > 100 µM | GI50 (K-562 leukemia) > 100 µM | GI50 (KM12 colon) > 100 µM | GI50 (LOX IMVI melanoma) > 100 µM | GI50 (M14 melanoma) > 100 µM | GI50 (MALME-3M melanoma) > 100 µM | GI50 (MCF7 breast) > 100 µM | GI50 (MDA-MB-231 breast) 24.1 µM | GI50 (MDA-MB-435 melanoma) > 100 µM | GI50 (MDA-MB-468 breast) 58.4 µM | GI50 (MOLT-4 leukemia) 1.45 µM | GI50 (NCI-H226 lung) 55.9 µM | GI50 (NCI-H23 lung) > 100 µM | GI50 (NCI-H322M lung) > 100 µM | GI50 (NCI-H460 NSCLC) > 100 µM | GI50 (NCI-H522 lung) 32.8 µM | GI50 (NCI/ADR-RES ovarian) > 100 µM | GI50 (OVCAR-3 ovarian) 40.6 µM | GI50 (OVCAR-4 ovarian) 51.4 µM | GI50 (OVCAR-5 ovarian) > 100 µM | GI50 (OVCAR-8 ovarian) > 100 µM | GI50 (PC-3 prostate) > 100 µM | GI50 (RXF 393 renal) 3.37 µM | GI50 (SF-268 CNS) > 100 µM | GI50 (SF-295 CNS) > 100 µM | GI50 (SF-539 CNS) > 100 µM | GI50 (SK-MEL-2 melanoma) 72.9 µM | GI50 (SK-MEL-28 melanoma) > 100 µM | GI50 (SK-MEL-5 melanoma) > 100 µM | GI50 (SK-OV-3 ovarian) > 100 µM | GI50 (SN12C renal) > 100 µM | GI50 (SNB-19 CNS) > 100 µM | GI50 (SR leukemia) 82.8 µM | GI50 (SW-620 colon) > 100 µM | GI50 (T-47D breast) > 100 µM | GI50 (TK-10 renal) > 100 µM | GI50 (U251 glioblastoma) > 100 µM | GI50 (UACC-257 melanoma) > 100 µM | GI50 (UACC-62 melanoma) 51.3 µM | GI50 (UO-31 renal) > 100 µM
